Reference: ChEMBL document CHEMBL1201862, “PubChem BioAssay data set” (2004)
Active and inactive are the calls of the source.

Key:
Genome polyprotein = Genome polyprotein (dengue virus type 2, UniProt P29990); test: Dengue-2 NS5 methyltransferase inhibitors, primary screen, biochemical, confirmation dose response (AID 588689); assay type: functional
Vero = Vero cell cytotoxicity, cytotoxicity control for flavivirus capping enzyme inhibitors (AID 588742); assay type: functional; conditions: Chlorocebus sabaeus
HEK293 [1] = test: cytotoxicity in HEK293T NF-kB-Luc cells, SAR follow-up, cytotoxicity control for NF-kB activator project, cell-based, resazurin fluorescence (AID 493251); assay type: functional; conditions: Homo sapiens
Jurkat = test: SAR Analysis of small molecule inhibitors of […] specific antigen receptor-induced NF-kB activation in a Jurkat cell line using a luminescence assay - Set 3. [Related pubchem assays (depositor defined):AID435022, AID435025, AID465]; assay type: functional, cell-based; conditions: Homo sapiens
HEK293 [2] = test: SAR Analysis of small molecule inhibitors of B-cell specific antigen receptor-induced NF-kB activation in a HEK-293T cell line using a luminescence assay - Set 2. [Related pubchem assays (depositor defined):AID435022, AID435025, AID489021]; assay type: functional, cell-based; conditions: Homo sapiens
[3] = target: T1, Sentrin-specific protease 6 (Homo sapiens, UniProt Q9GZR1); test: SENP6 protease inhibitors, SAR follow-up, biochemical, luminescence, set 2 (AID 588598); assay type: functional
T1 sequence (Q9GZR1 whole entry): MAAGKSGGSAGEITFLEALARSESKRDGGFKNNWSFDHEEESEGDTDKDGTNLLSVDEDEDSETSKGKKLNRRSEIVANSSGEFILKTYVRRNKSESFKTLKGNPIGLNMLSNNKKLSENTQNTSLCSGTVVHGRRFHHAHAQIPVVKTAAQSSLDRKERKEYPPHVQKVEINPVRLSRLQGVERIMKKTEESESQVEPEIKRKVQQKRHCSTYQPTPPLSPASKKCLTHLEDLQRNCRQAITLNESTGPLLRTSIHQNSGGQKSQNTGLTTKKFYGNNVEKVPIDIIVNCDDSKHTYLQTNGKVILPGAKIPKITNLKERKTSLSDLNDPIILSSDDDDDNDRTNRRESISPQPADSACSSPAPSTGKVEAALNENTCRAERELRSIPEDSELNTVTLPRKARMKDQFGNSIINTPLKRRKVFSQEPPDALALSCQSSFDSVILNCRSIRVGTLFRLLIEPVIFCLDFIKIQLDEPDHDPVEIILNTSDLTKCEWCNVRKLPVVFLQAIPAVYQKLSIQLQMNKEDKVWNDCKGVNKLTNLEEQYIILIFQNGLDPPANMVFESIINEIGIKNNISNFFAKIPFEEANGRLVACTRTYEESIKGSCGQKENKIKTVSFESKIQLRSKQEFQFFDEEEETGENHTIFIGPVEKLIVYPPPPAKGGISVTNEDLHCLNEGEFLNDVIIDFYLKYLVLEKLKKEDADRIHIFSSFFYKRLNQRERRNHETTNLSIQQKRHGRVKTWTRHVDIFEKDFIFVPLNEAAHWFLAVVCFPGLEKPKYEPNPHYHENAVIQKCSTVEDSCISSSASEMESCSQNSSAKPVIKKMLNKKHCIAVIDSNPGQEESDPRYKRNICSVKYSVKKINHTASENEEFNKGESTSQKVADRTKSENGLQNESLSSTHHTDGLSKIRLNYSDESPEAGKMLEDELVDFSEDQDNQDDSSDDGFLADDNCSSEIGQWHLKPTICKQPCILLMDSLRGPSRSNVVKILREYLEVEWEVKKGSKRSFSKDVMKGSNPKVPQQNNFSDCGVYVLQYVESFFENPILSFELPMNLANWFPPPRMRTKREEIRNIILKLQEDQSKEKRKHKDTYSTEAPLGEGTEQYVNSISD

[4] = target: T2, Sentrin-specific protease 8 (Homo sapiens, UniProt Q96LD8); test: SENP8 protease inhibitors, SAR follow-up, biochemical, luminescence, set 2 (AID 588601); assay type: functional
T2 sequence (Q96LD8 whole entry): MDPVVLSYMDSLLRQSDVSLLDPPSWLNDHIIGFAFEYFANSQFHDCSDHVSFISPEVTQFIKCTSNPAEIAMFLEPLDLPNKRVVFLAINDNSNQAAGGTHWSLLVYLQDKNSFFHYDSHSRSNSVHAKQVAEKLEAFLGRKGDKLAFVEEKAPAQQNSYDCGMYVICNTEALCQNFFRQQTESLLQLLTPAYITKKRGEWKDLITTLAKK

[5] = target: T3, Sentrin-specific protease 7 (Homo sapiens, UniProt Q9BQF6); test: SENP7 protease inhibitors, SAR follow-up, biochemical, luminescence, set 2 (AID 588600); assay type: functional
T3 sequence (Q9BQF6 whole entry): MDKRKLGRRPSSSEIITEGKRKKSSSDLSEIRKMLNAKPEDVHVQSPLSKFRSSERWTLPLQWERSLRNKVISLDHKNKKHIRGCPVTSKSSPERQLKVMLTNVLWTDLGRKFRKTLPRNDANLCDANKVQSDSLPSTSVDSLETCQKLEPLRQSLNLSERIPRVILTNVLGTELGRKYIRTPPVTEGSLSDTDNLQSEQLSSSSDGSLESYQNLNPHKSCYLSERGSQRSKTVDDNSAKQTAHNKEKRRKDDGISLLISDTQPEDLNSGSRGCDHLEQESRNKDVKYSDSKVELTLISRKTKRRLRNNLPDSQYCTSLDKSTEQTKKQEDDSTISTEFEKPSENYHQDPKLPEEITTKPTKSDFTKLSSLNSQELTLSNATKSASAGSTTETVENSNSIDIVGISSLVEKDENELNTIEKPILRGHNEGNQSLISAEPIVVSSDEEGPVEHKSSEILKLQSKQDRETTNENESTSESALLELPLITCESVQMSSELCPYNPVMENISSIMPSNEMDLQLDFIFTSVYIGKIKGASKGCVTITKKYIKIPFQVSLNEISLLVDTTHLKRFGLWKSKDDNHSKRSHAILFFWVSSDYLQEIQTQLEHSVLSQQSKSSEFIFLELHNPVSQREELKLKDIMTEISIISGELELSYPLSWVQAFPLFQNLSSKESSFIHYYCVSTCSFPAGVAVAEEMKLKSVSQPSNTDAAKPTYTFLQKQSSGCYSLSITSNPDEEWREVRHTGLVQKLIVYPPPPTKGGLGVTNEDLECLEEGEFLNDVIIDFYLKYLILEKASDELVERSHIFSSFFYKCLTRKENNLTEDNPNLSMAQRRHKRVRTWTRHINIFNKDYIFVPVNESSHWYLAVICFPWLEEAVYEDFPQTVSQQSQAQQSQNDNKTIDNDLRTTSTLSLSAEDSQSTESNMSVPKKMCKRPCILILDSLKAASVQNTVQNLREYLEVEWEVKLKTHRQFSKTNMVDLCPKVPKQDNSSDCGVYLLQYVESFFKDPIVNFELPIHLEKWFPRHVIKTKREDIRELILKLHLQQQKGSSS

Caspase-3 = target: T4, Caspase-3 (Homo sapiens, UniProt P42574); test: caspase-3 inhibitors as off-family protease, SAR follow-up, selectivity assay for SENP protease inhibitor project, biochemical, luminescence, set 2 (AID 588599); assay type: functional
T4 sequence (P42574 whole entry): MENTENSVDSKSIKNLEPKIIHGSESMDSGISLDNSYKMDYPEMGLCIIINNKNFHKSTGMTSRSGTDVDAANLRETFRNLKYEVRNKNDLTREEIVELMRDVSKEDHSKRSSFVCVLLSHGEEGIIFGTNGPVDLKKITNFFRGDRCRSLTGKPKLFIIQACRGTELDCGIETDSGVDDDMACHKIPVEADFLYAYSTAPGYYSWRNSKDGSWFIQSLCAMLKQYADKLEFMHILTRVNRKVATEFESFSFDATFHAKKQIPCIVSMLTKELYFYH

[6] = target: Dual specificity protein kinase CLK1 (Homo sapiens, UniProt P49759); test: CLK1 kinase inhibitors, off-target check, dose response, selectivity assay for Dyrk1A inhibitor project, biochemical, cherry-picked samples (AID 588811)
[7] = target: Cyclin-dependent kinase 2 (Homo sapiens, UniProt P24941); test: CDK2 kinase inhibitors, off-target check, dose response, selectivity assay for Dyrk1A inhibitor project, biochemical, cherry-picked samples (AID 602127)

Chain of Dual specificity protein kinase CLK1 (P49759 whole entry): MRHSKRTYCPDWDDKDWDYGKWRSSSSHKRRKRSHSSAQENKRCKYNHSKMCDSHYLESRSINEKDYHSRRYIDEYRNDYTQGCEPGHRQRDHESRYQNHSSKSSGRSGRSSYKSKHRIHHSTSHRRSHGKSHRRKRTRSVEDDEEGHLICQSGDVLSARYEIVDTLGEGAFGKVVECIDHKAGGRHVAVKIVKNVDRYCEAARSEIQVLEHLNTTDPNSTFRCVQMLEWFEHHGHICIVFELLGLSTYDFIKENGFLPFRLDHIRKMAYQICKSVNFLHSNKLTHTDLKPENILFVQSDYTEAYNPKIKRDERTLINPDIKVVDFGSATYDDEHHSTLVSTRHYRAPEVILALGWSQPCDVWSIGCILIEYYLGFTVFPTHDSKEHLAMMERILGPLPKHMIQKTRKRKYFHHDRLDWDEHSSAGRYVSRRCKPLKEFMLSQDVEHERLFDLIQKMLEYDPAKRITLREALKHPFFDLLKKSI
Chain of Genome polyprotein (P29990 2492-3391 limits assumed): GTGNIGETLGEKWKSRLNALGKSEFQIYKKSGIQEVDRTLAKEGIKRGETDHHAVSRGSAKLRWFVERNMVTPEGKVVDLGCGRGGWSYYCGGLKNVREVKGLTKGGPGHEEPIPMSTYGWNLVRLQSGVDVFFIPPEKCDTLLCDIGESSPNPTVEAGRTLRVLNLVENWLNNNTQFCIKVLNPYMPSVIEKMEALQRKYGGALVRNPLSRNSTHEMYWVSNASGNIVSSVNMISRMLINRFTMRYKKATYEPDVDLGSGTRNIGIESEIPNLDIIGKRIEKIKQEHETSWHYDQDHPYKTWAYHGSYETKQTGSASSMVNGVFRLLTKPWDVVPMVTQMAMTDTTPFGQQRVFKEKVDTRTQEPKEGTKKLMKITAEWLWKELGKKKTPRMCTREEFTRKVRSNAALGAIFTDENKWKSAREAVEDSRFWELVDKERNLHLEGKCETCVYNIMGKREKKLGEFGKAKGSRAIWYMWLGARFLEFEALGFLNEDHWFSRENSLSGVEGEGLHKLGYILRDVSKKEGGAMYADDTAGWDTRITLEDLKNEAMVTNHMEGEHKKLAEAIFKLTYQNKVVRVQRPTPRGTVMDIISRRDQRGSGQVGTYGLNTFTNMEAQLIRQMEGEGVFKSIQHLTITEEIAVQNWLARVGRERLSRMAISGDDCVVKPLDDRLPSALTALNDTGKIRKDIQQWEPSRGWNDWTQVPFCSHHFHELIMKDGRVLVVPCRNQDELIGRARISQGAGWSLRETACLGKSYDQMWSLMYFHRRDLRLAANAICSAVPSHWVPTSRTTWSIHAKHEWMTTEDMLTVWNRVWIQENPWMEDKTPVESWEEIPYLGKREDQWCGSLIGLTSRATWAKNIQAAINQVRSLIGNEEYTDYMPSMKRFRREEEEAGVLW

`O=C1NC(=S)NC(=O)C1=Cc1c(Cl)cccc1Cl` was tested, and the IC50 (Genome polyprotein) was 26.9 µM (active) and the CC50 (Vero) was > 40 µM (active).

`CNC(=O)CCc1nc(-c2ccc(F)cc2)no1` was tested, and the IC50 (HEK293 [1]) was > 80 µM (inactive), the IC50 (Jurkat) was > 80 µM (inactive) and the IC50 (HEK293 [2]) was > 80 µM (inactive).

For `COc1cccc2sc(NC(=O)c3ccc(OCc4nccn4C)cc3)nc12`, the IC50 [3] was 77.2 µM (active), the IC50 [4] was 77.4 µM (active) and the IC50 [5] was > 99 µM (inactive). For the same molecule, the IC50 (Caspase-3) was 89.9 µM (active).

For `c1cncc(CNc2nccc(-c3ccc4cn[nH]c4c3)n2)c1`, the AC50 [6] was 0.0754 µM (active) and the AC50 [7] was 13.8 µM (active).
